In patent US9486434B2, “Method for delivery and use of isothiocyanates for prophylaxis and/or therapy of bladder cancer” (Health Research Inc., priority 2010, dated 2016):
Where two headings read alike, the source gives them in different places.

Tests used:
[1] = system: human bladder cancer UM-UC-3 cells; test: MTT cell growth and proliferation assay, UM-UC-3 cells; assay type: cell-based; conditions: Homo sapiens, read-out: IC50, inhibition of cell proliferation
Protocol: (§1) FIG. 3. The effect of AITC on cell survival and proliferation. AITC was evaluated at the indicated concentrations in human bladder cancer UM-UC-3 cells, rat bladder cancer AY-27 cells, and normal human bladder epithelial cells (HUC). A. Cell growth inhibition, measured by MTT assay, 72-h AITC treatment. IC50 was calculated from nonlinear regression curve fit. B. Cell cycle arrest (□, subG1; ? , G1; ? , 5; ▪, G2/M), measured by flow cytometry, 24 h AITC treatment. C. Apoptosis induction, measured by an ELISA assay, 24 h AITC treatment. Mean±SE, n=3-6), *P<0.05.
(§2) FIG. 10. The effect of NAC-AITC on cell survival and proliferation. NAC-AITC was evaluated in both UM-UC-3 cells and AY-27 cells. (A) Chemical structures of AITC and NAC-AITC. (B) Cell growth and proliferation, measured by 3-([…])-2,5-diphenyltetrazolium bromide assay, 72 h treatment with AITC or NAC-AITC at indicated concentrations. IC50 was calculated from the non-linear regression curve fit. (C) Apoptosis, measured by an enzyme-linked immunosorbent assay, 24 h NAC-AITC treatment at 15 µM. (D) Cell cycle (open bars, G1; shaded bars, S; closed bars, G2/M), measured by flow cytometry, 24 h NAC-AITC treatment at 15 μM. *P<, 0.005, compared with control.
(§3) Assays for cell proliferation, cell cycle arrest and apoptosis. To determine the antiproliferative activity of NAC-AITC, AY-27 cells were grown in 96-well microtiter plates ([…] with 0.15 ml medium per well) for 24 h and then grown for 72 h in fresh medium (0.2 ml/well) containing a series of concentrations of NAC-AITC or solvent. Cell growth was measured at the end of treatment using the 3-([…])-2,5-diphenyltetrazolium bromide assay, from which the half maximal inhibitory concentration (IC50) of NAC-AITC was calculated. AITC was also evaluated for comparison.

[2] = system: rat bladder cancer AY-27 cells; test: MTT cell growth and proliferation assay, AY-27 cells; assay type: cell-based; conditions: Rattus norvegicus, read-out: IC50, inhibition of cell proliferation
Protocol: as §1, §2, §3

AY-27 cells [3] = test: Cell cycle arrest by flow cytometry, AY-27 cells; assay type: cell-based, rat; conditions: 24 h
Protocol: as §1, §2
The effect of NAC-AITC on cell cycle progression was measured by flow cytometry as described previously. Briefly, 1.5×10^6 AY-27 cells were grown in each 10-cm plate with 10 ml medium for 24 h and then treated with NAC-AITC or solvent for 24 h before analysis. Induction of apoptosis by NAC-AITC was measured using the Cell Death Detection ELISA^plus kit (Roche Diagnostics, Indianapolis, Ind.), following the manufacturer's instruction. […] At the end of treatment, the cells were treated with lysis buffer, and after a low-speed centrifugation, a portion of the supernatant fraction was used for spectroscopic measurement (expressed as A405-490 nm) of cytoplasmic levels of histone-associated mononucleosomes or oligonucleosomes by an enzyme-linked immunosorbent assay. […]

UM-UC-3 cells = test: Apoptosis induction ELISA (histone-associated DNA), UM-UC-3 cells; assay type: cell-based, human; conditions: 24 h
Protocol: as §1, §2
(§4) The effect of NAC-AITC on cell cycle progression was measured by flow cytometry as described previously. […]

AY-27 cells [4] = test: Apoptosis induction ELISA (histone-associated DNA), AY-27 cells; assay type: cell-based, rat; conditions: 24 h
Protocol: as §1, §2, §4

[5] = system: orthotopic AY-27 bladder tumor; test: Orthotopic rat bladder cancer model; assay type: in vivo, rat (female F344); conditions: for tumor-bearing bladders showing muscle invasion: control 71%
From the text: FIG. 6. […] Female F344 rats were inoculated intravesically with bladder cancer AY-27 cells to initiate development of orthotopic bladder tumor. Oral administration of AITC at 0, 10, 25, 50 and 300 micromols/kg once daily was started 1 day after AY-27 cell inoculation and ended 3 weeks later. The number of rats per group varied from 6 to 33; some of the data, particularly the control group (n=33) and the group treated with the lowest dose of AITC (n=23), were pooled from several experiments. A. The initial and final body weights. B. The weights of bladder tumors. […] C. Percentage of bladders where the tumor invaded the muscle tissue. D. H/E staining of the normal rat bladder wall (D1), a superficial rat bladder tumor (D2), and a rat bladder tumor that invaded the muscle layer (D3).
FIG. 8. […] Female F344 rats were inoculated with AY-27 cells intravesically via a urethra catheter to initiate development of orthotopic bladder cancer. Oral administration of MSP-1 of vehicle (water) once daily was started 1 day after cancer cell inoculation and ended 3 weeks later. The number of rats per group varied from 11-29. A. Initial (□) and final (▪) body weights. […] Each value in A and B is mean±SEM. C. Percentage of bladder where the tumor invaded the muscle tissue. D. The effects of MSP-1 on selected anticancer targets in UM-UC-3 cells (in vitro), AY-27 cells (in vitro) and AY-27 tumors (in vivo). […] The bladder tumors were removed from rats treated with MSP-1 at the sinigrin doses of 9 or 90 micromols/kg once daily for 3 weeks, started 1 day after cancer cell inoculation. Cell lysates and tumor homogenates were analyzed by Western blotting, using GAPDH as a loading control.
FIG. 9. […] Female F344 rats were inoculated with bladder cancer AY-27 cells to initiate development of orthotopic bladder tumor. Oral administration of the powder (sinigrin and glucoraphanin: each at 10 micromols/kg) once daily was started 1 day after AY-27 cell inoculation and ended 3 weeks later. The number of rats per group was 9-10. Each value is mean±SE.
FIG. 12. […] Bladder cancer was initiated in female F344 rats by orthotopic inoculation of bladder cancer AY-27 cells. Oral administration of NAC-AITC at 10 μmmol/kg body wt once daily was started 1 day after cancer cell inoculation and ended 3 weeks later. There were 23 rats in the control group and 15 rats in the treatment group. (A) The initial (open bars) and final (closed bars) body weight. (B) Bladder tumor weight. Each value is a mean±SE. (C) Percentage of bladders where the tumor invaded the muscle tissue.
AITC was evaluated in an orthotopic rat bladder cancer model. […] Daily oral administration of AITC was initiated one day after instillation of AY-27 cells and continued for 3 weeks. AITC was evaluated at 4 dose levels: 10, 25, 50 and 300 micromols/kg. […] FIG. 6D depicts representative images of normal rat bladder wall (D1), a superficial AY-27 rat bladder tumor (D2), and a muscle-invasive AY-27 rat bladder tumor (D3).
A syngeneic orthotopic rat bladder cancer model.

[6] = 10 μmol/kg body wt oral once daily, 3 weeks

IC50 ([1]; UMUC3, Example 9, 72 h treatment) [µM]	IC50 ([2]; AY-27, Example 9, 72 h treatment) [µM]	Structure (SMILES)	IC50 ([1]; UMUC3, 72 h) [µM]	IC50 ([2]; AY-27, 72 h) [µM]	cells in G2/M phase (AY-27 cells [3]; AITC 7.5-15 microM, control 9.9-11.5%) [%]	increase in subG1 population (AY-27 cells [3]; AITC) [fold]	increase in cytoplasmic levels of histone-associated DNA (UM-UC-3 cells; AITC)	increase in cytoplasmic levels of histone-associated DNA (AY-27 cells [4]; AITC) [fold]	inhibition of muscle invasion [5, 6] [%]	inhibition of tumor growth [5, 6] [%]	tumor-bearing bladders showing muscle invasion ([5]; AITC 10 micromols/kg) [%]	tumor-bearing bladders showing muscle invasion ([5]; AITC 25 micromols/kg) [%]	tumor-bearing bladders showing muscle invasion ([5]; AITC 50 or 300 micromols/kg) [%]	inhibition of orthotopic bladder cancer growth ([5]; AITC 300 micromols/kg oral daily, 3 weeks) [%]	inhibition of tumor growth ([5]; AITC lower dose levels (10, 25, 50 micromols/kg) oral daily, 3 weeks) [%]	cells in G2/M phase (AY-27 cells [3]; NAC-AITC 15 µM, control 11-12%) [%]	increase in apoptotic activity (UM-UC-3 cells; 15 μM) [fold]	increase in apoptotic activity (AY-27 cells [4]; 15 μM) [fold]	effect on body weight ([5]; NAC-AITC 10 μmol/kg daily, 3 weeks)	bladders with muscle invasion ([5]; NAC-AITC 10 μmol/kg, control 79%) [%]
–	–	C=CCN=C=S [AITC, allyl isothiocyanate]	2.7	3.3	≤ 49	≤ 7.8	up to 3.9 fold	≤ 5.2	73	30	18.9	27	50	20	30	–	–	–	–	–
7.4	9.1	C=CCNC(=S)SC[C@H](NC(C)=O)C(=O)O [NAC-AITC, N-acetyl-S—(N-allylthiocarbamoyl)cysteine]	–	–	–	–	–	–	49	40	–	–	–	–	–	45	8.8	10.6	no significant effect on body weight	30
